Values of other authors as cited in EP1935397A1, “Oral and tooth care and cleaning agents for combating halitosis” (Henkel AG & Co. KGaA, priority 2006, dated 2008).

Conditions: 20°C

Löslichkeit | Compound
4500 g/l (20°C) | Zinkiodid
0,9 mg/l (20°C) | Zinkstearat
960 g/l (20°C) | Zinksulfat-Heptahydat
100 g/l (20°C) | Zinkgluconat
430 g/l (20°C) | Zinkacetat-Dihydrat
~350 g/l (20°C) | Zinksulfat-Monohydrat
1843 g/l (20°C) | Zinknitrat Hexahydrat

Same assay, conditions: 20°C; result in words

Löslichkeit | Compound
Leicht löslich (20°C) | Zinknitrat-Tetrahydrat
Fast unlöslich (20°C) | Zinkhydroxycarbonat

Same assay, conditions: 25°C

Löslichkeit | Compound
820 g/l (25°C) | Zinkbromid
4320 g/l (25°C) | Zinkchlorid

Same assay, conditions: temperature not given; result in words

Löslichkeit | Compound
Unlöslich | [O-2].[Zn+2] [Zinkoxid]
